Like-named read-outs stand apart in the source and are kept apart here.
What was measured:
[1] = Long-term stability (ICH), 25° C./60% RH; assay type: physicochemical
Procedure: Polymorph Form A was manufactured under Good Manufacturing Practices (GMP)-compliant conditions at a scale of 1.26 kg. The container closure for the batch consisted of double-lined low density polyethylene bags placed inside fiberboard drums, and the batch was on ICH stability under storage conditions of 25° C./60% relative humidity (RH) and 40° C./75% RH. Long-term stability data through the 36-month interval and accelerated stability data through the 6-month interval are shown in Tables 2 and 3.
Stability samples were tested according to the protocol (Table 5) and to the same specification as the drug substance. The available stability data for samples stored at 25° C./60% RH and 40° C./75% RH are summarized.

[2] = Log P/D by shake-flask method (1-octanol/buffer, HPLC); assay type: physicochemical; conditions: for logD: 1-octanol/buffer
Procedure: First, a sample stock solution of Polymorph Form A (100 mmol/L in DMSO) was prepared. 20 μL each of sample DMSO stock solutions was added into 4 ml-vials, then dispensed into 990 μL of 1-octanol-saturated buffer at varied pH and 990 μL of buffer-saturated 1-octanol, vortexed for 3 min and shaken for 1 hr at […], then centrifuged at 2500 rpm for 2 min to get rid of bubbles in the solutions. Finally, buffer-layer sample and 1-octanol-layer sample were separated, and then buffer-layer sample and 1-octanol-layer sample was injected into HPLC, integrated the chromatography and calculated the sample concentrations ratio in both buffer and 1-octanol phase. The Log P/D result was obtained by following equation: […]
The Log P/D value of Polymorph Form A was acquired by shake-flask method using a HPLC system. Since the concentrations of Polymorph Form A in buffer layer are too low to analyze, based on the comparison of blank and standard solution (S/N=5), 0.05 μmol/L was used in buffer layer to calculate Log D.

Appearance ([1]; 25° C./60% RH, 0 months): White | Assay (anhydrous w/w %) ([1]; 25° C./60% RH, 0 months): 101.3 w/w % | Chiral purity (area %) ([1]; 25° C./60% RH, 0 months): 99.9 area % | Individual related substance (area %, w/w), RRT 0.46 ([1]; 25° C./60% RH, 0 months): 0.08 area %, w/w | Individual related substance (area %, w/w), RRT 0.64 ([1]; 25° C./60% RH, 0 months): 0.12 area %, w/w | Individual related substance (area %, w/w), RRT 1.20 ([1]; 25° C./60% RH, 0 months): 0.05 area %, w/w | Purity (% area) ([1]; 25° C./60% RH, 0 months): 99.8 % area | Total related substances ([1]; 25° C./60% RH, 0 months): 0.25% | Water content (%) ([1]; 25° C./60% RH, 0 months): 2.1% | Appearance ([1]; 25° C./60% RH, 3 months): White | Assay (anhydrous w/w %) ([1]; 25° C./60% RH, 3 months): 102.5 w/w % | Chiral purity (area %) ([1]; 25° C./60% RH, 3 months): 99.8 area % | Individual related substance (area %, w/w), RRT 0.46 ([1]; 25° C./60% RH, 3 months): 0.08 area %, w/w | Individual related substance (area %, w/w), RRT 0.64 ([1]; 25° C./60% RH, 3 months): 0.12 area %, w/w | Individual related substance (area %, w/w), RRT 1.20 ([1]; 25° C./60% RH, 3 months): 0.05 area %, w/w | Purity (% area) ([1]; 25° C./60% RH, 3 months): 99.8 % area | Total related substances ([1]; 25° C./60% RH, 3 months): 0.25% | Water content (%) ([1]; 25° C./60% RH, 3 months): 6.1% | Appearance ([1]; 25° C./60% RH, 6 months): White | Assay (anhydrous w/w %) ([1]; 25° C./60% RH, 6 months): 101.1 w/w % | Chiral purity (area %) ([1]; 25° C./60% RH, 6 months): 99.8 area % | Individual related substance (area %, w/w), RRT 0.46 ([1]; 25° C./60% RH, 6 months): 0.08 area %, w/w | Individual related substance (area %, w/w), RRT 0.64 ([1]; 25° C./60% RH, 6 months): 0.11 area %, w/w | Individual related substance (area %, w/w), RRT 1.20 ([1]; 25° C./60% RH, 6 months): 0.05 area %, w/w | Purity (% area) ([1]; 25° C./60% RH, 6 months): 99.8 % area | Total related substances ([1]; 25° C./60% RH, 6 months): 0.24% | Water content (%) ([1]; 25° C./60% RH, 6 months): 6.5% | XRPD ([1]; 25° C./60% RH, 6 months): Same | Appearance ([1]; 25° C./60% RH, 9 months): White | Assay (anhydrous w/w %) ([1]; 25° C./60% RH, 9 months): 101.1 w/w % | Chiral purity (area %) ([1]; 25° C./60% RH, 9 months): 99.6 area % | Individual related substance (area %, w/w), RRT 0.46 ([1]; 25° C./60% RH, 9 months): 0.08 area %, w/w | Individual related substance (area %, w/w), RRT 0.64 ([1]; 25° C./60% RH, 9 months): 0.12 area %, w/w | Individual related substance (area %, w/w), RRT 1.20 ([1]; 25° C./60% RH, 9 months): 0.05 area %, w/w | Purity (% area) ([1]; 25° C./60% RH, 9 months): 99.8 % area | Total related substances ([1]; 25° C./60% RH, 9 months): 0.25% | Water content (%) ([1]; 25° C./60% RH, 9 months): 6.7% | Appearance ([1]; 25° C./60% RH, 12 months): White | Assay (anhydrous w/w %) ([1]; 25° C./60% RH, 12 months): 101.0 w/w % | Chiral purity (area %) ([1]; 25° C./60% RH, 12 months): 99.4 area % | Individual related substance (area %, w/w), RRT 0.46 ([1]; 25° C./60% RH, 12 months): 0.08 area %, w/w | Individual related substance (area %, w/w), RRT 0.64 ([1]; 25° C./60% RH, 12 months): 0.11 area %, w/w | Individual related substance (area %, w/w), RRT 1.20 ([1]; 25° C./60% RH, 12 months): 0.05 area %, w/w | Purity (% area) ([1]; 25° C./60% RH, 12 months): 99.8 % area | Total related substances ([1]; 25° C./60% RH, 12 months): 0.24% | Water content (%) ([1]; 25° C./60% RH, 12 months): 7.0% | XRPD ([1]; 25° C./60% RH, 12 months): Same | Appearance ([1]; 25° C./60% RH, 18 months): White | Assay (anhydrous w/w %) ([1]; 25° C./60% RH, 18 months): 100.9 w/w % | Chiral purity (area %) ([1]; 25° C./60% RH, 18 months): 99.5 area % | Individual related substance (area %, w/w), RRT 0.46 ([1]; 25° C./60% RH, 18 months): 0.08 area %, w/w | Individual related substance (area %, w/w), RRT 0.64 ([1]; 25° C./60% RH, 18 months): 0.12 area %, w/w | Individual related substance (area %, w/w), RRT 1.20 ([1]; 25° C./60% RH, 18 months): 0.06 area %, w/w | Purity (% area) ([1]; 25° C./60% RH, 18 months): 99.7 % area | Total related substances ([1]; 25° C./60% RH, 18 months): 0.26% | Water content (%) ([1]; 25° C./60% RH, 18 months): 6.9% | Appearance ([1]; 25° C./60% RH, 24 months): White | Assay (anhydrous w/w %) ([1]; 25° C./60% RH, 24 months): 101.6 w/w % | Chiral purity (area %) ([1]; 25° C./60% RH, 24 months): 100.0 area % | Individual related substance (area %, w/w), RRT 0.46 ([1]; 25° C./60% RH, 24 months): 0.08 area %, w/w | Individual related substance (area %, w/w), RRT 0.64 ([1]; 25° C./60% RH, 24 months): 0.12 area %, w/w | Individual related substance (area %, w/w), RRT 1.20 ([1]; 25° C./60% RH, 24 months): 0.07 area %, w/w | Purity (% area) ([1]; 25° C./60% RH, 24 months): 99.7 % area | Total related substances ([1]; 25° C./60% RH, 24 months): 0.27% | Water content (%) ([1]; 25° C./60% RH, 24 months): 7.4% | XRPD ([1]; 25° C./60% RH, 24 months): Same | Appearance ([1]; 25° C./60% RH, 36 months): White | Assay (anhydrous w/w %) ([1]; 25° C./60% RH, 36 months): 101.4 w/w % | Chiral purity (area %) ([1]; 25° C./60% RH, 36 months): 99.8 area % | Individual related substance (area %, w/w), RRT 0.31 ([1]; 25° C./60% RH, 36 months): 0.05 area %, w/w | Individual related substance (area %, w/w), RRT 0.46 ([1]; 25° C./60% RH, 36 months): 0.08 area %, w/w | Individual related substance (area %, w/w), RRT 0.64 ([1]; 25° C./60% RH, 36 months): 0.12 area %, w/w | Individual related substance (area %, w/w), RRT 1.20 ([1]; 25° C./60% RH, 36 months): 0.05 area %, w/w | Purity (% area) ([1]; 25° C./60% RH, 36 months): 99.7 % area | Total related substances ([1]; 25° C./60% RH, 36 months): 0.3% | Water content (%) ([1]; 25° C./60% RH, 36 months): 7.5% | XRPD ([1]; 25° C./60% RH, 36 months): Same | anhydrous assay value ([1]; long-term condition through the 36-month interval): around 101% | changes in assay value, total related substances, physical description, or solid state form (XRPD) ([1]; stored at 25° C./60% RH and 40° C./75% RH): No significant changes | Total related substances ([1]; stored at 25° C./60% RH and 40° C./75% RH, remained constant): around 0.25% | logD ([2]; pH 1.5, read-out: Log D Rep.1): > 4.32 | logD ([2]; pH 7.4, read-out: Log D Rep.1): > 4.32 | logD ([2]; pH 1.0, read-out: Log D Rep.1): > 4.32 | logD ([2]; pH 2.0, read-out: Log D Rep.1): > 4.32 | logD ([2]; pH 3.0, read-out: Log D Rep.1): > 4.32 | logD ([2]; pH 4.0, read-out: Log D Rep.1): > 4.32 | logD ([2]; pH 11.0, read-out: Log D Rep.1): > 4.32 | logD ([2]; pH range of 1.0 to 11.0, read-out: Log D values): > 4.32 | Log D Average ([2]; pH 1.0): >4.32 | Log D Rep.2 ([2]; pH 1.0): >4.32 | Log D Average ([2]; pH 1.5): >4.32 | Log D Rep.2 ([2]; pH 1.5): >4.32 | Log D Average ([2]; pH 2.0): >4.32 | Log D Rep.2 ([2]; pH 2.0): >4.32 | Log D Average ([2]; pH 3.0): >4.32 | Log D Rep.2 ([2]; pH 3.0): >4.32 | Log D Average ([2]; pH 4.0): >4.32 | Log D Rep.2 ([2]; pH 4.0): >4.32 | Log D Average ([2]; pH 7.4): >4.32 | Log D Rep.2 ([2]; pH 7.4): >4.32 | Log D Average ([2]; pH 11.0): >4.32 | Log D Rep.2 ([2]; pH 11.0): >4.32
Compound: Cc1cc(C)c(-c2ccc(NC(=O)[C@H](Cc3ccc(C(=O)NCCS(=O)(=O)[O-])cc3)c3ccc(-c4ccc(C(C)(C)C)cc4)cc3)cc2)c(C)c1.[Na+] [Polymorph Form A, Sodium (R)-2-(4-(2-(4′-(tert-butyl)-[1,1′-biphenyl]-4-yl)-3-oxo-3-((2′,4′,6′-trimethyl-[1,1′-biphenyl]-4-yl)amino)propyl)benzamido)ethane-1-sulfonate]

From patent US12208071B2, “Glucagon receptor antagonists” (LIGAND PHARMACEUTICALS INCORPORATED, priority 2018, dated 2025)
